{"source": "patent US20190262404A1", "about": "“PHARMACEUTICAL COMPOSITION FOR PREVENTING OR TREATING IMMUNE DISEASE OR INFLAMMATORY DISEASE INCLUDING INFLAMMATORY STIMULATED MESENCHYMAL STEM CELL” (SCM LIFESCIENCE CO., LTD., priority 2016, published 2019)", "format_in_all_cases": "cell-based, human", "key": {"MLR-activated PBMCs": {"test_system": "MLR-activated PBMCs", "assay": "ELISA of proinflammatory cytokines, MSCs co-cultured with MLR-activated PBMCs, medium with nAChR antagonist or agonist", "description": "(§1) The medium was harvested from nAChR antagonist or agonist-containing co-culture experiments. The secreted proinflammatory cytokines were quantified using the ELISA kits for TNF-α (BD Biosciences; cat. #555212) and IFN-γ (BD Biosciences; cat. #555141). The medium in which MLR- or PHA-activated PBMCs were cultured was used to carry out the assay for NGF (R&D Systems, Minneapolis, Minn., USA; cat. # DY256-05) and BDNF (R&D Systems; cat. # DBD00).\n(§2) α-Bungarotoxin (EMD Millipore; cat. #203980), an nAChRα7 antagonist, was added to the medium at the concentration of […]. As cholinergic agonists, ACh chloride (Sigma; cat. # A6625) and carbachol (EMD Millipore; cat. #212385) were used at the concentrations of 1 nM and 10 pM, respectively, and the experiments were conducted.\n(§3) In order to confirm ACh-nAChR pathway mechanism of MSCs under the inflammatory conditions, experiments were performed according to the methods described in Experimental Examples 1-2 and 1-10. The mixed lymphocyte reaction (MLR) condition was set such that PBMCs obtained from different donors were cultured together, and the phytohemagglutinin (PHA) treatment condition was set such that PBMCs were treated with PHA. According to inflammatory conditions, each PBMCs only group (P and Po) obtained from different donors; MSCs group co-cultured in mixed lymphocyte reaction (MLR) condition (MSC in MLR); mixed lymphocyte reaction condition group without MSCs (MLR); or MSCs group co-cultured in phytohemagglutinin (PHA) treatment condition (MSC in P^PHA) were placed. A cholinergic antagonist such as α-bungarotoxin (α-BTX, an antagonist of nAChRα7); a cholinergic agonist such as ACh chloride (ACh-Cl, an agonist of AChR); or a non-specific cholinergic agonist such as carbachol was added to the medium, and the activity of TNF-α and IFN-γ of MSCs by each inflammatory condition was confirmed. The results are illustrated in FIG. 14."}, "PHA-activated PBMCs": {"test_system": "PHA-activated PBMCs", "assay": "ELISA of proinflammatory cytokines, MSCs co-cultured with PHA-activated PBMCs, medium with nAChR antagonist or agonist", "description": "as §1, §2, §3"}, "[1]": {"test_system": "MLR- or PHA-activated PBMCs", "assay": "MSCs co-cultured with MLR- or PHA-activated PBMCs in medium supplemented with carbachol", "settings": "carbachol 10 pM added to MSCs culture medium under the inflammatory condition (FIGS. 15A to 15D)"}, "[2]": {"settings": "MSCs + MLR-activated PBMCs, α-BTX 1 M or ACh-Cl 1 nM added to the medium"}, "[3]": {"settings": "MSCs + PHA-activated PBMCs, α-BTX 1 M or ACh-Cl 1 nM added to the medium"}}, "note": "Read-outs that look alike come from different tables or passages of the source."}
{"compound": "α-Bungarotoxin [α-BTX]", "values": [{"measurement": "IFN-γ", "setting": "MLR-activated PBMCs", "result": "activated again"}, {"measurement": "TNF-α", "setting": "MLR-activated PBMCs", "result": "activated again"}, {"measurement": "IFN-γ", "setting": "PHA-activated PBMCs", "result": "activated again"}, {"measurement": "TNF-α", "setting": "PHA-activated PBMCs", "result": "activated again"}]}
{"compound": "C[N+](C)(C)CCOC(N)=O", "note": "[carbachol]", "values": [{"measurement": "inflammatory cytokine release", "setting": "[1]", "result": "inhibited"}, {"measurement": "lymphocyte proliferation", "setting": "[1]", "result": "inhibited the lymphocyte proliferation"}]}
{"compound": "CC(=O)OCC[N+](C)(C)C.[Cl-]", "note": "[ACh-Cl, ACh chloride]", "values": [{"measurement": "IFN-γ", "setting": "MLR-activated PBMCs; [2]", "result": "significantly inhibited"}, {"measurement": "TNF-α", "setting": "MLR-activated PBMCs; [2]", "result": "significantly inhibited"}, {"measurement": "IFN-γ", "setting": "PHA-activated PBMCs; [3]", "result": "significantly inhibited"}, {"measurement": "TNF-α", "setting": "PHA-activated PBMCs; [3]", "result": "significantly inhibited"}]}
